A value given as a limit tells only on which side of the number the result lay.

The subject of one series is HeLa cells. Description: HeLa cell viability (PrestoBlue). In kind it is cell-based. The following applies: Homo sapiens, 48 h. As for the experimental part:
(§1) Cell viability was measured using the PrestoBlue cell viability reagent (Invitrogen) according to the manufacturer’s recommendations.
For HeLa cells, 5000 cells/well were seeded in complete medium on 96-wells, black walls plate the day before the treatment. Compounds were dissolved in medium at the indicated concentrations and added to cells. Five technical replicates were performed for each treatment. 48 h after treatment, 8 μL of PrestoBlue was added to each well and the cells were incubated at 37 °C for 15 min. Fluorescence (excitation 560 nm, emission 590 nm, 10 nm bandwidth) was recorded using a FLUOstar Omega Microplate Reader (BMG). […]
as §1
For HeLa cells, 5000 cells/well were seeded in complete medium on 96-wells, black walls plate the day before the treatment. […] Fluorescence (excitation 560 nm, emission 590 nm, 10 nm bandwidth) was recorded using a FLUOstar Omega Microplate Reader (BMG).
For Immortalized Human Total Liver Cell Population (IHTLCP), 1850 cells/well were seeded in complete Prigrow III medium (abm) in 384-wells, black walls plate (Perkin Elmer) the day before the treatment. […] Percent viability of IHTLCP cells was calculated as FLUcmp -FLUbg/ FLUDMSO -FLUbg (n=3).
(§2) THP1 cell viability was measured according to a previously published procedure.9

Series [1] can be described thus: Caco-2 intrinsic permeability. The following applies: human, read-out: Cell-permeability (Papp). It counts as in vitro ADME. The source says: We next performed further profiling of the most promising compound 5 and its matched pair neutral analogue 27, by measuring intrinsic permeability in a Caco-2 assay (Table S3). […] This was further confirmed using Immortalized Human Total Liver Cell Population (IHTLCP) and HeLa cells (Figures S22 and S23). […] This observed cytotoxicity of 5 can be linked to its potent G4 binding and stabilization, as it can potentially act as a pan-G4 stabilizer and affect various G4-regulated cellular processes, such as telomere maintenance, gene transcription, and DNA replication.
Physicochemical properties
The Physicochemical profiling (LogD, Solubility, Caco-2 cell permeability) was performed as previously
described.8 Cell viability was performed as described below.
Table S2. Pharmacokinetic Properties
Compound Structure logD, Solubility, Rat hepsa Human mics b

Series [2] deals with Immortalized Human Total Liver Cell Population (IHTLCP). Description: IHTLCP cell viability (PrestoBlue). In kind it is cell-based. Conditions: 72 h. Here is the method:
as §1
For IHTLCP, 1850 cells/well were seeded in complete Prigrow III medium (abm) in 384-wells, black walls plate (PerkinElmer) the day before the treatment. Compounds were titrated 1/2 in DMSO, dissolved in medium, and transferred to the cells to generate the indicated final concentrations (final volume 60 μL/well). 72 h after treatment, 6 μL of PrestoBlue was added per well. Cells were incubated in PrestoBlue for 1 h at 37 °C after which fluorescence (excitation 535 nm, emission 590 nm, 20 nm bandwidth) was measured using a Synergy H4Microplate Reader. Percent viability of IHTLCP cells was calculated as FLUcmp – FLUbg/FLUDMSO – FLUbg (n = 3). […]
a Intrinsic clearance in rat hepatocytes ((μL/min)/10^6 cells).b Intrinsic clearance in human microsomes (μL/min/mg).
Table S3. […]
as §1
For HeLa cells, 5000 cells/well were seeded in complete medium on 96-wells, black walls plate the day before the treatment. […] Fluorescence (excitation 560 nm, emission 590 nm, 10 nm bandwidth) was recorded using a FLUOstar Omega Microplate Reader (BMG). […]
as §2

In the case of `Cc1cc(C)c2nc(Nc3nc(C)cc(C)n3)nc(C)c2c1` [Compound 27, N-(4,6-Dimethylpyrimidin-2-yl)-4,6,8-trimethylquinazolin-2-amine], the concentration for half-maximal inhibition (IC50) (commonly the concentration that gives 50% inhibition) in the series on HeLa cells was 19 to 34 µM; in series [2] it was 35 µM. For the same molecule, in series [1], the Papp (in general, a coefficient for how fast a substance crosses the barrier) is 70 ×10⁻⁶ cm/s.
For the molecule `Cc1cc(C)c2nc(Nc3nc(C)cc(NCCCN(C)C)n3)nc(C)c2c1` [Compound 5, N4-(3-(Dimethylamino)propyl)-6-methyl-N2-(4,6,8-trimethylquinazolin-2-yl)pyrimidine-2,4-diamine], the figures for the IC50 (with HeLa cells; in series [2]) were 0.88 to 1.1 µM and 0.64 µM, respectively. Moreover, in series [1], the Papp was below 0.13 ×10⁻⁶ cm/s.
